According to patent US11021467B2, “Phosphatidylinositol 3-kinase inhibitors” (Gilead Sciences, Inc., priority 2014, dated 2021):

What was measured:
Test in all cases: TR-FRET enzymatic activity assay against PI3K isoforms
Format in all cases: biochemical
PI3Kβ = PI3Kβ (Homo sapiens (Human), UniProt P42338); details: for IC50: PI3Kβ, TR-FRET, 2×Km ATP, 30 minutes at 25° C.
Excerpt: (§1) The compounds of formula (I) were characterized for their enzymatic activity against the PI3K isoforms. […] TR-FRET monitored the formation of 3,4,5-inositol triphosphate molecule that competed with fluorescently labeled PIP3 for binding to the GRP-1 pleckstrin homology domain protein.

PI3Kγ = PI3Kγ (Homo sapiens (Human), UniProt P48736); details: 2×Km ATP, 30 minutes at 25° C.
Excerpt: as §1

PI3Kδ = PI3Kδ (Homo sapiens (Human), UniProt O00329); details: 2×Km ATP, 30 minutes at 25° C.
Excerpt: as §1

PI3Kγ, sequence (P48736 whole entry): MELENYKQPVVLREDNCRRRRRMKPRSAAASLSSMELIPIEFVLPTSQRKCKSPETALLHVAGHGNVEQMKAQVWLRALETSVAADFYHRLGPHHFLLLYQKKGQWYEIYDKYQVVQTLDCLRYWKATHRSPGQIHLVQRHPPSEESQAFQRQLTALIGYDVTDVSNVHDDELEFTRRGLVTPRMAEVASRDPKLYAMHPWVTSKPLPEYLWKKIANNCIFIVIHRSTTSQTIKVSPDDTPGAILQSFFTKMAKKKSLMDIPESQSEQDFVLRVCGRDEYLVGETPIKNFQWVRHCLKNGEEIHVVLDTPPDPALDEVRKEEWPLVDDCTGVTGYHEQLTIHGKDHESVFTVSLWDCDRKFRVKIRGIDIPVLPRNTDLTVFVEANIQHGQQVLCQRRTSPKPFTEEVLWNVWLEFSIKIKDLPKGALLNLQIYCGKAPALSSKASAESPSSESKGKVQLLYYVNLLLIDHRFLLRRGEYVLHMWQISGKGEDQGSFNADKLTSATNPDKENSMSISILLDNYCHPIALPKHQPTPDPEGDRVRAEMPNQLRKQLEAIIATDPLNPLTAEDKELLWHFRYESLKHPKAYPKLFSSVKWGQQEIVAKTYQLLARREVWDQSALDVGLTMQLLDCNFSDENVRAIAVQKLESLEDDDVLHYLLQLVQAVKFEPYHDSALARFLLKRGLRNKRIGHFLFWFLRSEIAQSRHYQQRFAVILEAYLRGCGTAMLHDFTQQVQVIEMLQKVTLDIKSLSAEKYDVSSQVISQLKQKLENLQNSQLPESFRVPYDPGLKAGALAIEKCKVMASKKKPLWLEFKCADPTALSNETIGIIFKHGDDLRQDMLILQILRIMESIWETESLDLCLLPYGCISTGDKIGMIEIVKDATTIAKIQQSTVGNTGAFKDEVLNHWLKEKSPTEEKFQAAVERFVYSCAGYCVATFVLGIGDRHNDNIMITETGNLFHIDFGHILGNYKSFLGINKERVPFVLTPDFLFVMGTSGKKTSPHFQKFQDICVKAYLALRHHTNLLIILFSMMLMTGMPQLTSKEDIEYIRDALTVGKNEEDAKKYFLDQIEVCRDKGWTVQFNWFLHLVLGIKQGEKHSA
PI3Kβ, sequence (P42338 whole entry, the tested form may be a part, canonical isoform): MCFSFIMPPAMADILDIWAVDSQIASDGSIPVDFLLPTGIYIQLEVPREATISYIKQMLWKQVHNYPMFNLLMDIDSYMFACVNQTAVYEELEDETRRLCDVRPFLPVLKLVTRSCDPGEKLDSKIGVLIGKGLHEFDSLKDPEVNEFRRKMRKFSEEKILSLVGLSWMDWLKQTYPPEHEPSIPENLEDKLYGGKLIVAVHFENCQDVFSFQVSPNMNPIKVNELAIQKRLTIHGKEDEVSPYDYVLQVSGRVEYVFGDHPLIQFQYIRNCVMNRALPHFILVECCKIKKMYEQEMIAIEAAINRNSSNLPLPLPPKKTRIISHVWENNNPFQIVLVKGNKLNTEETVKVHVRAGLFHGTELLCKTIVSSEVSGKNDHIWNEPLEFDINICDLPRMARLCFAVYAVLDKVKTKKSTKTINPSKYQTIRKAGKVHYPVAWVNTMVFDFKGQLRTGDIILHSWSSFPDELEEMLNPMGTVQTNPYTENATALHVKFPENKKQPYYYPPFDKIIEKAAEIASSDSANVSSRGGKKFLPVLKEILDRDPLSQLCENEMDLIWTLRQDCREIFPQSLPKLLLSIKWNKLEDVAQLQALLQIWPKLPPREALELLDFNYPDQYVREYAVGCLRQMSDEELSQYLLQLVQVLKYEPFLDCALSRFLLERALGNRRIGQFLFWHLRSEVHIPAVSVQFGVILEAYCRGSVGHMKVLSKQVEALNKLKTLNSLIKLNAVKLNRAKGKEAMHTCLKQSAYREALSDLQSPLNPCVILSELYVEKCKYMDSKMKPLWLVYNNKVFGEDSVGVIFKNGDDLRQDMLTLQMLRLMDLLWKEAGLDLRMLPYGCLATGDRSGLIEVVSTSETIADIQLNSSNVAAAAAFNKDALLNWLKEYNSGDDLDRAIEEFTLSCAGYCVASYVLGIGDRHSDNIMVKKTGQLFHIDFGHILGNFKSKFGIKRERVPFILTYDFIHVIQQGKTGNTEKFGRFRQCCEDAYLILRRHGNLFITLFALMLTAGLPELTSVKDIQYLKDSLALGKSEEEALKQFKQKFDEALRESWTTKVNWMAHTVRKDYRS
PI3Kβ, sequence (P27986 whole entry partner, the tested form may be a part, canonical isoform): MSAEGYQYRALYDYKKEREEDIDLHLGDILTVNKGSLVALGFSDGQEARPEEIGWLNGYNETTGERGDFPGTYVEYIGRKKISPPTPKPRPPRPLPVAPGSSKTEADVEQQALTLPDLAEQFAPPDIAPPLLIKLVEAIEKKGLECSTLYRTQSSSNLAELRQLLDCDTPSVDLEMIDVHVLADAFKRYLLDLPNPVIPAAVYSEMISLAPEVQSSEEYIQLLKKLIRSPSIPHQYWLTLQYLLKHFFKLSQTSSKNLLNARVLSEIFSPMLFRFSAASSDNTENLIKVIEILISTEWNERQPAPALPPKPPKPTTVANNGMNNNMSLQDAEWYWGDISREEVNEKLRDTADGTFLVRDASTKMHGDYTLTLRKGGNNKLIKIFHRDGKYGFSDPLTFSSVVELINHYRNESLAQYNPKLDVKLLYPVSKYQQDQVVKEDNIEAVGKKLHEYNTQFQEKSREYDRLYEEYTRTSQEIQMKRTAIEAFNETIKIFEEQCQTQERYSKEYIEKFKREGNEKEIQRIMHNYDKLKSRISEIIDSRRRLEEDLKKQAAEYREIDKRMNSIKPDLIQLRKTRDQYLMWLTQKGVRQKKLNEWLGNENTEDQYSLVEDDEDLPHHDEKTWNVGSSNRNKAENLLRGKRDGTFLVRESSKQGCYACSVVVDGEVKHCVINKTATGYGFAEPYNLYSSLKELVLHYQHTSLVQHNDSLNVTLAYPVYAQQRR
PI3Kδ, sequence (O00329 whole entry): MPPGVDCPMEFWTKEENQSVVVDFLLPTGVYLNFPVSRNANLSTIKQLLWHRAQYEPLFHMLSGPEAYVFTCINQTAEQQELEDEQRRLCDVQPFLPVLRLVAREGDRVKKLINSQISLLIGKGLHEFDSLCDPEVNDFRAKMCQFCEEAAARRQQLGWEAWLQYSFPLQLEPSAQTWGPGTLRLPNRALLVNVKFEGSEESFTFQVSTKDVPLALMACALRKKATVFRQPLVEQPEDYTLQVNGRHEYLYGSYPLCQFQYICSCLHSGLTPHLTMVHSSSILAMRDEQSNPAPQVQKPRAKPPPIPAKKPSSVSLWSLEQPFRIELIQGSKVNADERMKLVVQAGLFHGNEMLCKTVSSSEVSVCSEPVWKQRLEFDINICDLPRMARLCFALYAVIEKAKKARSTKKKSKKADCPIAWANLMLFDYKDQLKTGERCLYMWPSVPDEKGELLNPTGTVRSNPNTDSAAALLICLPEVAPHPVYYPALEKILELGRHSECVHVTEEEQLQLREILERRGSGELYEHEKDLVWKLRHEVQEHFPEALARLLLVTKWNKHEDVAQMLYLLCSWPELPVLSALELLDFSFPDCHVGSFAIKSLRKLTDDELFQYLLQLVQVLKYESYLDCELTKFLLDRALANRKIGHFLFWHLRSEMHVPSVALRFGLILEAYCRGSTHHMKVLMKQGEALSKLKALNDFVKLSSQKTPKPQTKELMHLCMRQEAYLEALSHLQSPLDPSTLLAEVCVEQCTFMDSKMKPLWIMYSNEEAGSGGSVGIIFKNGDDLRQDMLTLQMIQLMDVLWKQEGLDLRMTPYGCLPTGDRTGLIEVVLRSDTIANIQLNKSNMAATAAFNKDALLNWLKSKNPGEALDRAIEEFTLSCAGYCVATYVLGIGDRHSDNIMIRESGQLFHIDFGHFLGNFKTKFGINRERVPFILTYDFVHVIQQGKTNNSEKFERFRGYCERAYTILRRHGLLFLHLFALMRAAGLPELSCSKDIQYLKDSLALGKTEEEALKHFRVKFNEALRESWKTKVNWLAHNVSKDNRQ
PI3Kδ, sequence (P27986 whole entry partner): as the sequence (P27986 whole entry partner, the tested form may be a part, canonical isoform) above

| IC50 (PI3Kβ) | IC50 (PI3Kγ) | IC50 (PI3Kδ) | PI3Kγ/PI3Kβ ratio (PI3Kβ; ratio of IC50 values, selectivity for PI3Kβ over PI3Kγ) | SMILES |
| --- | --- | --- | --- | --- |
| 0.2 µM | ≥ 10 µM | 0.007 µM |  | CC(CN)Cn1c([C@H](C)Nc2ncnc(N)c2C#N)nc2cccc(Cl)c2c1=O (stereo partly drawn) [Compound 27, 4-amino-6-(((1S)-1-(3-(3-amino-2-methylpropyl)-5-chloro-4-oxo-3,4-dihydroquinazolin-2-yl)ethyl)amino)pyrimidine-5-carbonitrile] |
| 0.1 µM | ≥ 10 µM | 0.003 µM |  | C[C@H](Nc1ncnc(N)c1C#N)c1nc2cccc(Cl)c2c(=O)n1CCCCN [Compound 28, (S)-4-amino-6-((1-(3-(4-aminobutyl)-5-chloro-4-oxo-3,4-dihydroquinazolin-2-yl)ethyl)amino)pyrimidine-5-carbonitrile] |
| 0.047 µM | ≥ 10 µM | 0.007 µM |  | Cc1cccc2nc([C@H](C)Nc3ncnc(N)c3C#N)n(CCCN)c(=O)c12 [Compound 29, (S)-4-amino-6-((1-(3-(3-aminopropyl)-5-methyl-4-oxo-3,4-dihydroquinazolin-2-yl)ethyl)amino)pyrimidine-5-carbonitrile] |
| 0.11 µM | ≥ 10 µM | 0.011 µM |  | C[C@H](Nc1ncnc(N)c1Cl)c1nc2cccc(Cl)c2c(=O)n1CCCN [Compound 30, (S)-2-(1-((6-amino-5-chloropyrimidin-4-yl)amino)ethyl)-3-(3-aminopropyl)-5-chloroquinazolin-4(3H)-one] |
| 0.047 µM | ≥ 10 µM | 0.006 µM |  | CNCCCn1c([C@H](C)Nc2ncnc(N)c2C#N)nc2cccc(Cl)c2c1=O [Compound 31, (S)-4-amino-6-((1-(5-chloro-3-(3-(methylamino)propyl)-4-oxo-3,4-dihydroquinazolin-2-yl)ethyl)amino)pyrimidine-5-carbonitrile] |
| 0.044 µM | 3.2 µM | 0.092 µM |  | C[C@H](NC(=O)c1c(N)nn2cccnc12)c1nc2cccc(Cl)c2c(=O)n1CCCN [Compound 32, (S)-2-amino-N-(1-(3-(3-aminopropyl)-5-chloro-4-oxo-3,4-dihydroquinazolin-2-yl)ethyl)pyrazolo[1,5-a]pyrimidine-3-carboxamide] |
| 2.1 µM | ≥ 10 µM | 0.21 µM |  | CC(C)C[C@H](Nc1ncnc(N)c1C#N)c1nc2cccc(Cl)c2c(=O)n1CCCN [Compound 33, (S)-4-amino-6-((1-(3-(3-aminopropyl)-5-chloro-4-oxo-3,4-dihydroquinazolin-2-yl)-3-methylbutyl)amino)pyrimidine-5-carbonitrile] |
| 0.25 µM | ≥ 10 µM | 0.079 µM |  | CC[C@H](Nc1ncnc(N)c1C#N)c1nc2cccc(Cl)c2c(=O)n1CCCN [Compound 34, (S)-4-amino-6-((1-(3-(3-aminopropyl)-5-chloro-4-oxo-3,4-dihydroquinazolin-2-yl)propyl)amino)pyrimidine-5-carbonitrile] |
| 0.11 µM | ≥ 10 µM | 0.021 µM |  | NCCCn1c([C@@H](Nc2ncnn3ccnc23)C2CC2)nc2cccc(Cl)c2c1=O [Compound 35, (S)-3-(3-aminopropyl)-5-chloro-2-(cyclopropyl(imidazo[2,1-][1,2,4]triazin-4-ylamino)methyl)quinazolin-4(3H)-one] |
| 0.071 µM | 8.2 µM | 0.027 µM |  | CC[C@H](Nc1nc(N)nc(N)c1C#N)c1nc2cccc(Cl)c2c(=O)n1CCCN [Compound 36, (S)-2,4-diamino-6-((1-(3-(3-aminopropyl)-5-chloro-4-oxo-3,4-dihydroquinazolin-2-yl)propyl)amino)pyrimidine-5-carbonitrile] |
| 0.057 µM | 4.8 µM | 0.016 µM |  | NCCCn1c([C@@H](Nc2ncnc3cccnc23)C2CC2)nc2cccc(Cl)c2c1=O [Compound 37, (S)-3-(3-aminopropyl)-5-chloro-2-(cyclopropyl(pyrido[3,2-d]pyrimidin-4-ylamino)methyl)quinazolin-4(3H)-one] |
| 0.044 µM | ≥ 10 µM | 0.012 µM |  | NCCCn1c([C@@H](Nc2nc(N)nc(N)c2Cl)C2CC2)nc2cccc(Cl)c2c1=O [Compound 38, (S)-3-(3-aminopropyl)-5-chloro-2-(cyclopropyl((2,6-diamino-5-chloropyrimidin-4-yl)amino)methyl)quinazolin-4(3H)-one] |
| 0.025 µM | 2.4 µM | 0.003 µM |  | CNCCCn1c([C@H](C)Nc2nc(N)nc(N)c2C#N)nc2cccc(Cl)c2c1=O [Compound 39, (S)-2,4-diamino-6-((1-(5-chloro-3-(3-(methylamino)propyl)-4-oxo-3,4-dihydroquinazolin-2-yl)ethyl)amino)pyrimidine-5-carbonitrile] |
| 0.021 µM | ≥ 10 µM | 0.009 µM |  | N#Cc1c(N)ncnc1N[C@H](c1nc2cccc(Cl)c2c(=O)n1CCCN)C1CC1 [Compound 40, (S)-4-amino-6-(((3-(3-aminopropyl)-5-chloro-4-oxo-3,4-dihydroquinazolin-2-yl)(cyclopropyl)methyl)amino)pyrimidine-5-carbonitrile] |
| 0.015 µM | 1.8 µM | 0.003 µM |  | CNCCCn1c([C@H](C)Nc2nc(N)nc(C)c2C#N)nc2cccc(Cl)c2c1=O [Compound 41, (S)-2-amino-4-((1-(5-chloro-3-(3-(methylamino)propyl)-4-oxo-3,4-dihydroquinazolin-2-yl)ethyl)amino)-6-methylpyrimidine-5-carbonitrile] |
| 0.015 µM | 1.4 µM | 0.002 µM |  | C[C@H](Nc1nc(N)nc(N)c1C#N)c1nc2cccc(Cl)c2c(=O)n1CCCN [Compound 42, (S)-2,4-diamino-6-((1-(3-(3-aminopropyl)-5-chloro-4-oxo-3,4-dihydroquinazolin-2-yl)ethyl)amino)pyrimidine-5-carbonitrile] |
| 0.007 µM | 3.4 µM | 0.006 µM |  | NCCCn1c([C@@H](Nc2ncnc3[nH]cc(Br)c23)C2CC2)nc2cccc(Cl)c2c1=O [Compound 43, (S)-3-(3-aminopropyl)-2-(((5-bromo-7H-pyrrolo[2,3-d]pyrimidin-4-yl)amino)(cyclopropyl)methyl)-5-chloroquinazolin-4(3H)-one] |
| 0.008 µM | 6 µM | 0.011 µM |  | N#Cc1c(Cl)nc(N)nc1N[C@H](c1nc2cccc(Cl)c2c(=O)n1CCCN)C1CC1 [Compound 44, (S)-2-amino-4-(((3-(3-aminopropyl)-5-chloro-4-oxo-3,4-dihydroquinazolin-2-yl)(cyclopropyl)methyl)amino)-6-chloropyrimidine-5-carbonitrile] |
| 0.007 µM | 2.1 µM | 0.004 µM |  | NCCCn1c([C@@H](Nc2ncnc3scnc23)C2CC2)nc2cccc(Cl)c2c1=O [Compound 45, (S)-3-(3-aminopropyl)-5-chloro-2-(cyclopropyl(thiazolo[5,4-d]pyrimidin-7-ylamino)methyl)quinazolin-4(3H)-one] |
| 0.006 µM | 2.5 µM | 0.003 µM |  | CNCCCn1c([C@@H](Nc2nc(N)nc(N)c2C#N)C2CC2)nc2cccc(Cl)c2c1=O [Compound 46, (S)-2,4-diamino-6-(((5-chloro-3-(3-(methylamino)propyl)-4-oxo-3,4-dihydroquinazolin-2-yl)(cyclopropyl)methyl)amino)pyrimidine-5-carbonitrile] |
| 0.005 µM | 1.1 µM | 0.003 µM | 230 | N#Cc1c(N)nc(N)nc1N[C@H](c1nc2cccc(Cl)c2c(=O)n1CCCN)C1CC1 [Compound 47, (S)-2,4-diamino-6-(((3-(3-aminopropyl)-5-chloro-4-oxo-3,4-dihydroquinazolin-2-yl)(cyclopropyl)methyl)amino)pyrimidine-5-carbonitrile] |
| 0.004 µM | 0.9 µM | 0.004 µM |  | NCCCn1c([C@@H](Nc2ncnc3ccc(Cl)nc23)C2CC2)nc2cccc(Cl)c2c1=O [Compound 48, (S)-3-(3-aminopropyl)-5-chloro-2-(((6-chloropyrido[3,2-d]pyrimidin-4-yl)amino)(cyclopropyl)methyl)quinazolin-4(3H)-one] |
| 0.001 µM | 0.75 µM | 0.001 µM |  | Cc1nc(N)nc(N[C@H](c2nc3cccc(Cl)c3c(=O)n2CCCN)C2CC2)c1C#N [Compound 49, (S)-2-amino-4-(((3-(3-aminopropyl)-5-chloro-4-oxo-3,4-dihydroquinazolin-2-yl)(cyclopropyl)methyl)amino)-6-methylpyrimidine-5-carbonitrile] |
| 0.075 µM | 4.6 µM | 0.071 µM |  | C[C@H](NC(=O)c1nc(Br)c(N)nc1N)c1nc2cccc(Cl)c2c(=O)n1CCCN [Compound 50, (S)-3,5-diamino-N-(1-(3-(3-aminopropyl)-5-chloro-4-oxo-3,4-dihydroquinazolin-2-yl)ethyl)-6-bromopyrazine-2-carboxamide] |
| 0.11 µM | 5.5 µM | 0.008 µM |  | CC(=O)NCCCn1c([C@H](C)Nc2ncnc(N)c2C#N)nc2cccc(Cl)c2c1=O [Compound 51, (S)—N-(3-(2-(1-((6-amino-5-cyanopyrimidin-4-yl)amino)ethyl)-5-chloro-4-oxoquinazolin-3(4H)-yl)propyl)acetamide] |
| 0.029 µM | 1.2 µM | 0.004 µM |  | CC(C)(C)C(=O)NCCCn1c([C@@H](Nc2nc(N)nc(N)c2C#N)C2CC2)nc2cccc(Cl)c2c1=O [Compound 52, (S)—N-(3-(5-chloro-2-(cyclopropyl((2,6-diamino-5-cyanopyrimidin-4-yl)amino)methyl)-4-oxoquinazolin-3(4H)-yl)propyl)pivalamide] |
